# How the values were obtained:
# [1] = tested on: PgUGT71A1; assay: In-vitro glycosyltransferase assay of recombinant PgUGT71A1 with ginsenoside substrates and UDP-glucose; assay type: biochemical, Panax ginseng; settings: for conversion by PgUGT71A1 (product formed), HPLC / conversion by PgUGT71A1 (product formed), TLC: ginsenoside 5 mM, UDP-glucose 50 mM, 35° C., 12 hours; for conversion by PgUGT71A1 (product formed), HPLC: FIG. 2 bottom; for conversion by PgUGT71A1 (product formed), TLC: FIG. 2 top; for reaction with PgUGT71A1 confirmed by thin-layer chromatography: screen of 9 ginsenosides incubated with recombinant PgUGT71A1 in the presence of UDP-glucose; for conversion by PgUGT71A1 (product formed), TLC / reaction with PgUGT71A1 confirmed by thin-layer chromatography: TLC
# Protocol: A glycosyltransferase assay was conducted in a reaction buffer (10 mM PBS buffer, pH 7) containing the purified PgUGT71A1 (30 μg), a ginsenoside compound (5 mM) and UDP-glucose (50 mM). For this assay, 4 different types of ginsenosides, i.e., protopanaxadiol (PPD), protopanaxatriol (PPT), Rh2 and Rg3, were caused to react the enzyme of the present disclosure.
# The reaction mixture was incubated at 35° C. for 12 hours and the resulting products were analyzed by thin-layer chromatography (TLC) or high-performance liquid chromatography (HPLC).
# The TLC analysis was performed using a mobile phase (acetone:methanol:DDW=65:35:10 vol/vol) and a 60F254 silica gel plate (Merck, Germany). The resolved product on the TLC plate was detected by spraying 10% (vol/vol) sulfuric acid (H2SO4) and heating at 110° C. for 5 minutes.
# The HPLC analysis was performed using an ODS(2) C18 column (Phenomenex, USA). The condition of gradient application of water and acetonitrile was as follows: flow rate=1 mL/min, 0 minute, 68% water and 32% acetonitrile; 8 minutes, 35% water and 65% acetonitrile; 12 minutes, 0% water and 100% acetonitrile; 20 minutes, 0% water and 100% acetonitrile; 20.1 minutes, 68% water and 32% acetonitrile; and 28 minutes, 68% water and 32% acetonitrile.
# The ginsenosides were detected by monitoring at a wavelength of 203 nm using a UV detector (Agilent, USA).
# First, the recombinant PgUGT of Example 1, PgUGT71A1, was incubated with 9 different types of ginsenosides (PPD, Rh2, Rg3, C—K, F2, Rd, PPT, F1, and Rh1) in the presence of UDP-glucose.
# In order to confirm the result again, 4 different types of ginsenosides (PPD, PPT, Rh2, and Rg3) were incubated with PgUGT71A1, and the products converted by the recombinant PgUGT71A1 were analyzed by TLC. The result is shown at the top of FIG. 2. The result was confirmed by comparing the locations of the migrating spots with those of PPD, PPT, Rh2, Rg3, C—K, F2, Rd, and F1 used as standard samples.
# [2] = tested on: PgUGT71A1 expression; assay: Expression of PgUGT71A1 in ginseng leaves and roots after methyl jasmonate treatment (real-time PCR, NGS); assay type: in vivo, Panax ginseng; settings: 200 μM MeJA sprayed onto leaves of 15-month-old ginseng daily for 5 days, sampled 6th day, FIGS. 3 and 4
# Protocol: Total RNA was isolated from the leaf or root of 15-month-old ginseng using the Spectrum Plant Total RNA kit (Sigma-Aldrich). 200 μM methyl jasmonate (MeJA) was sprayed onto the leaves of ginseng every day for a total of 5 days and samples were collected on the 6th day. 1 μg of the total RNA was used for cDNA synthesis.
# The expression level of different genes was examined by quantitative RT-PCR using the primer sets listed in Table 1, and the result was normalized to the expression level of tubulin.
# RNA was extracted from the leaf and root of ginseng which had been treated and not treated with MeJA, and a cDNA library was constructed from 1 μg of the total RNA using the TruSeq RNA library kit. Following polyA-selected RNA extraction, RNA fragmentation and random hexamer-primed reverse transcription, 100 nt paired-end sequencing was conducted using Illumina HiSeq2000.
# The resulting sequences were subjected to de novo transcriptome assembly using the Trinity (2011-11-26 version) program. The produced contigs (transcripts) were analyzed using Blast (version 2.2.25+). The GO database (released on 20-04-2012) and the NR database of NCBI (download date: 2012/05/07) were used. […] The expression level was expressed as fragments per kilobase of exon per million fragments mapped (FPKM) with a program released by the Trinity group using the RSEM algorithm. […]
Structure (SMILES),"conversion by PgUGT71A1 (product formed), HPLC [1]","conversion by PgUGT71A1 (product formed), TLC [1]",reaction with PgUGT71A1 confirmed by thin-layer chromatography [1],expression of PgUGT71A1 after MeJA treatment [2]
"CC(C)=CCCC(C)(O)[C@H]1CC[C@]2(C)[C@@H]1[C@H](O)C[C@@H]1[C@@]3(C)CC[C@H](O)C(C)(C)[C@@H]3CC[C@]12C (stereo in doubt) [PPD, protopanaxadiol]",converted PPD to C—K,converted PPD to compound K (C—K),reaction occurred,–
"CC/C=C\CC1C(=O)CCC1CC(=O)OC (stereo not shown) [MeJA, methyl jasmonate]",–,–,–,significantly enhanced
"CC(C)=CCC[C@](C)(O)[C@H]1CC[C@]2(C)[C@@H]1[C@H](O)C[C@@H]1[C@@]3(C)CC[C@H](O)C(C)(C)[C@@H]3[C@@H](O)C[C@]12C [PPT, protopanaxatriol]",PPT to F1,PPT to F1,reaction occurred,–
CC(C)=CCC[C@](C)(O)[C@H]1CC[C@]2(C)[C@@H]1[C@H](O)C[C@@H]1[C@@]3(C)CC[C@H](O[C@@H]4O[C@H](CO)[C@@H](O)[C@H](O)[C@H]4O[C@@H]4O[C@H](CO)[C@@H](O)[C@H](O)[C@H]4O)C(C)(C)[C@@H]3CC[C@]12C [Rg3],Rg3 to Rd,Rg3 to Rd,reaction occurred,–
CC(C)=CCC[C@](C)(O)[C@H]1CC[C@]2(C)[C@@H]1[C@H](O)C[C@@H]1[C@@]3(C)CC[C@H](O[C@@H]4O[C@H](CO)[C@@H](O)[C@H](O)[C@H]4O)C(C)(C)[C@@H]3CC[C@]12C [Rh2],Rh2 to F2,Rh2 to F2,reaction occurred,–

# — patent US10174355B2, “Method for glycosylation of ginsenoside using a glycosyltransferase derived from panax ginseng” (KOREA ADVANCED INSTITUTE OF SCIENCE AND TECHNOLOGY, priority 2014, dated 2019)
